Here are results for three compounds from patent US8022203B2, “Amino derivatives of beta-homoandrostanes and beta-heteroandrostanes” (Sigma-Tau Industrie Farmaceutiche Riunite S.p.A., priority 2006, dated 2011).

As usually defined, the IC50 is the concentration needed to halve the response being measured.

The target in one data set is Na^+,K^+-ATPase (Canis lupus familiaris, UniProt P50997). Put plainly: Dog kidney Na+,K+-ATPase inhibition (hydrolysis of 32P-ATP). Format: biochemical.
The test system of data set [1] is spontaneous hypertensive rats of the Milan (MHS). Put plainly: Systolic blood pressure fall in spontaneous hypertensive rats (MHS), tail-cuff. The data set is classed as in vivo, rat. To be noted: five weeks, vs vehicle control.
Data set [2] has as its system hypertensive ouabain-sensitive rats (OS rats). Put plainly: Systolic blood pressure fall in hypertensive ouabain-sensitive rats (OS rats), tail-cuff. Format: in vivo, rat. To be noted: 10 μg/kg/day by mouth, four weeks. The procedure:
The ability of these compounds to lower blood pressure was tested by using animal models with genetic arterial hypertension, in particular, spontaneous hypertensive rats of the Milan (MHS) (Bianchi G., Ferrari P., Barber B. The Milan Hypertensive strain. In Handbook of hypertension. Vol. 4: Experimental and genetic models of hypertension. Ed. W. de jong-Elsevier Science Publishers B.V., 1984:328-349) and rats made hypertensive by chronic infusion of ouabain, according to Ferrari P., et al. J. Pharm. Exp. Ther. 1998, 285, 83-94.
The procedure adopted to test the antihypertensive activity of the compounds on the above mentioned model was the following: systolic blood pressure (SBP) and heart rate (HR) were measured by an indirect tail-cuff method.
SBP and HR were measured weekly 6 hours after the treatment.

Another data set deals with anesthetized guinea-pig. Put plainly: Inotropic effect and lethal dose, slow intravenous infusion in anesthetized guinea-pig.
Setting [3] is: Na^+,K^+-ATPase Inhibition IC50.
Setting [4] is: slow intravenous infusion over 90 minutes.

Molecules are shown by their SMILES. Where a name gives a salt, the structure may show the parent alone. Read-outs that look alike come from different tables or passages of the source.

Compound `CC12CCC3C(CC(=O)NC4CC(=NOCCN)CCC43C)C1CCC2=O` (stereo not drawn) [I-aa, (E,Z) 3-(2-Aminoethoxyimino)-6-aza-7a-homoandrostane-7,17-dione hydrochloride] returned an IC50 on Na^+,K^+-ATPase (setting [3]) of 25 µM. The SBP - % in data set [1] (0.001 μg/kg/os daily) is on record as 0.0%; in data set [1] (0.01 μg/kg/os daily), 5.2%; in data set [1] (0.1 μg/kg/os daily) it was 6.5%; in data set [1] (1 μg/kg/os daily), 6.0%; in data set [1] (10 μg/kg/os daily), 7.1%; in data set [2] it was 10.0%. For the same compound, the “SBP - mm Hg (decrease in systolic blood pressure)” value in data set [1] (0.001 μg/kg/os daily) is 1.0 +/− 1.1 mm Hg; in data set [1] (0.01 μg/kg/os daily) it was 8.8 +/− 1.6 mm Hg; in data set [1] (0.1 μg/kg/os daily), 11.3 +/− 1.5 mm Hg; in data set [1] (1 μg/kg/os daily), 10.0 +/− 2.1 mm Hg; in data set [1] (10 μg/kg/os daily), 12.3 +/− 1.1 mm Hg. For the same compound, in data set [2], the “SBP - mm Hg (fall)” value worked out at 17.0 mm Hg. For the same compound, the “SBP mm Hg” value in data set [2] amounted to 153.0 mm Hg.

On Na^+,K^+-ATPase (setting [3]), `CC12CCC3C(CCN(C=O)C4CC(=NOC5CCNC5)CCC34C)C1CCC2=O` [I-ap, (E,Z) 3-[3-(R)-Pyrrolidinyl]oxyimino-6-aza-6-formyl-7a-homoandrostane-17-one hydrochloride] gave an IC50 of 35 µM. Also, in data set [2], the SBP - % is given as 9.4%, the “SBP - mm Hg (fall)” value was 15.0 mm Hg and the “SBP mm Hg” value is 154.0 mm Hg.

As to `C[C@]12CCC(=NOCCN)CC1C(=O)C[C@@H]1[C@@H]2CC[C@]2(C)C(=O)CC[C@@H]12.Cl` (mixture of isomers) [Compd. 22b, (EZ) 3-(2-aminoethoxyimino)androstane-6,17-dione hydrochloride, reference compound], at Na^+,K^+-ATPase (dog kidney enzyme, read-out: Na^+,K^+-ATPase Inhibition IC50), the IC50 turned out to be 0.33 µM. In addition, in data set [1] (10 μg/kg/os daily), the SBP - % is listed as 2.2% and the “SBP - mm Hg (decrease in systolic blood pressure)” value was 3.6 +/− 4.8 mm Hg. Moreover, in data set [1] (100 μg/kg/os daily), the SBP - % is recorded as 6.6% and the “SBP - mm Hg (decrease in systolic blood pressure)” value is recorded as 10.7 +/− 7.5 mm Hg. Also, the “% decrease from Emax after 20 min from the end of the infusion” value with anesthetized guinea-pig (20 minutes after the end of the infusion) came out at 100%. Moreover, the “Lethal dose/ED80” value in the data set on anesthetized guinea-pig (calculated in the died animals) is 22.6. This compound also showed a Maximum dose infused in the data set on anesthetized guinea-pig (in the survived animals) of 32.1 µmol/kg. Also, in the data set on anesthetized guinea-pig (setting [4]), the Dead/treated is 7/8, the “ED80 (dose increasing +dP/dTmax by 80%)” value stood at 1.82 µmol/kg, the “EDmax (dose inducing maximum positive inotropic effect)” value came to 5.74 µmol/kg and the “Emax % increase in +dP/dTmax” value came to 182%.
